Patent publication US11584714B2 (priority 2018, dated 2023)
Counter-ions that a name gives are not always drawn. Like-named read-outs stand apart in the source and are kept apart here.

How the values were obtained:
Assay type in all cases: biochemical
MASP-2 (CCP1-CCP2-SP) = MASP-2 (CCP1-CCP2-SP) (Homo sapiens (Human), UniProt O00187); experiment: biochemical; details: for MASP-2 vs. thrombin selectivity: selectivity for MASP-2 inhibition versus thrombin
mMASP-2 = mMASP-2 (Mus musculus (Mouse), UniProt Q91WP0); experiment: Enzymatic inhibition of mMASP-2; details: read-out: mMASP-2 Ki
human α-thrombin = human α-thrombin (Homo sapiens (Human), UniProt P00734); experiment: Enzymatic assay for thrombin (Boc-VPR-AMC substrate)

MASP-2 (CCP1-CCP2-SP), sequence (O00187 445-686): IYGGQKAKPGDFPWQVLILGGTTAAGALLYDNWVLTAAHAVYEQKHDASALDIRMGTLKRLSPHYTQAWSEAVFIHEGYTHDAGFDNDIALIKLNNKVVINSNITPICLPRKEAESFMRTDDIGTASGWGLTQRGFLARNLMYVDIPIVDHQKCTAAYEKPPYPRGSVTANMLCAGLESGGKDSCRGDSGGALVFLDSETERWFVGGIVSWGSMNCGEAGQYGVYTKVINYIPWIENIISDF
mMASP-2, sequence (Q91WP0 20-685): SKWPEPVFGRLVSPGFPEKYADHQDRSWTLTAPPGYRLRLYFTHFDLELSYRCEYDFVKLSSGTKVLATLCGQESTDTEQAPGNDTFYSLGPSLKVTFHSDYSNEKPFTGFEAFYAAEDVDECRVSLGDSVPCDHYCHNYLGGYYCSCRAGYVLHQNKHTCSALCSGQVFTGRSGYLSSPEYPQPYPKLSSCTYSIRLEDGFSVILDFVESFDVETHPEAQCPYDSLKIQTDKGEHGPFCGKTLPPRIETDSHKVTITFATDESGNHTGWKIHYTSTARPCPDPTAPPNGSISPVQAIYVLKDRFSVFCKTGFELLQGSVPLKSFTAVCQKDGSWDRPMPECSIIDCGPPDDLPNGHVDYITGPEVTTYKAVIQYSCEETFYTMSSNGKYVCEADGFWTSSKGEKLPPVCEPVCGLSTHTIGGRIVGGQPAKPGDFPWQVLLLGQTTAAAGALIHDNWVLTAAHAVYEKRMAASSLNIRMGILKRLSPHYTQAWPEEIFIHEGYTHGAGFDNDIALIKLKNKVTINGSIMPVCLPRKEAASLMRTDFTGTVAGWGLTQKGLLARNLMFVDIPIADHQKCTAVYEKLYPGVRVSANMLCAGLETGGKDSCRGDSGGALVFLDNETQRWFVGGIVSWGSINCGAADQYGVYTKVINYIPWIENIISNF

| SMILES | Ki (MASP-2 (CCP1-CCP2-SP); read-out: MASP-2 Ki) [nM] | MASP-2 vs. thrombin selectivity (MASP-2 (CCP1-CCP2-SP)) | Ki (mMASP-2) [nM] | Ki (human α-thrombin; read-out: Thrombin Ki) [µM] | Ki (human α-thrombin; Thrombin Ki (μM)) [µM] | Ki (MASP-2 (CCP1-CCP2-SP)) [nM] |
| --- | --- | --- | --- | --- | --- | --- |
| Cc1nc(N)ccc1CNC(=O)[C@H](C)NC(=O)c1cc(Cc2ccccc2)c[nH]1 [compound 1467, (S)—N-(1-(((6-Amino-2-methylpyridin-3-yl)methyl)amino)-1-oxopropan-2-yl)-4-benzyl-1H-pyrrole-2-carboxamide trifluoroacetic acid] | < 500 | **** (≥100-fold) | 500 to 2500 | > 25 |  |  |
| Cc1cc(C[C@@H]2CN[C@@H](C(=O)N[C@@H](C)C(=O)NCc3cnc4c(c3)c(Cl)cn4C)C2)ccn1 [compound 1468, Trifluoroacetate] | < 500 | **** (≥100-fold) | < 500 | > 25 |  |  |
| Cc1cc(C[C@@H]2CN[C@@H](C(=O)N[C@@H](C)C(=O)NCc3ccc(N)nc3C)C2)ccn1 [compound 1469, (2R,4S)—N—((S)-1-(((6-Amino-2-methylpyridin-3-yl)methyl)amino)-1-oxopropan-2-yl)-4-((2-methylpyridin-4-yl)methyl)pyrrolidine-2-carboxamide Dihydrochloride] | < 500 | **** (≥100-fold) | < 500 |  | 2.5 to 10 |  |
| Cc1nc(N)ccc1CNC(=O)[C@H](C)NC(=O)[C@H]1C[C@H](Cc2ccc3nonc3c2)CN1 [compound 1470, (2R,4S)—N—((S)-1-(((6-Amino-2-methylpyridin-3-yl)methyl)amino)-1-oxopropan-2-yl)-4-(benzo[c][1,2,5]oxadiazol-5-ylmethyl)pyrrolidine-2-carboxamide Di-trifluoroacetate salt] | < 500 | **** (≥100-fold) | < 500 |  | 2.5 to 10 |  |
| C[C@H](NC(=O)[C@H]1C[C@H](c2ccccc2)CN1)C(=O)NCc1cnc2sccc2c1 [compound 1471, (2R,4R)—N—((S)-1-oxo-1-((Thieno[2,3-b]pyridin-5-ylmethyl)amino)propan-2-yl)-4-phenylpyrrolidine-2-carboxamide Trifluoroacetate salt] |  |  | 2500 to 10000 | > 25 |  | 2500 to 10000 |
| C[C@H](NC(=O)[C@H]1C[C@H](Cc2ccccc2)CN1)C(=O)NCc1cc2cnccc2[nH]1 [compound 1472, (2R,4S)—N—((S)-1-(((1H-Pyrrolo[3,2-c]pyridin-2-yl)methyl)amino)-1-oxopropan-2-yl)-4-benzylpyrrolidine-2-carboxamide Di-trifluoroacetate salt] | < 500 | **** (≥100-fold) | < 500 |  | 2.5 to 10 |  |
| Cc1nc(N)ccc1CNC(=O)[C@H](C)NC(=O)[C@H]1C[C@H](Cc2ccc(F)c(Cl)c2)CN1CCC(=O)O [compound 1473, 3-((2R,4S)-2-(((S)-1-(((6-Amino-2-methylpyridin-3-yl)methyl)amino)-1-oxopropan-2-yl)carbamoyl)-4-(3-chloro-4-fluorobenzyl)pyrrolidin-1-yl)propanoic acid Trifluoroacetate salt] | < 500 |  | < 500 | > 25 |  |  |
| C[C@H](NC(=O)[C@H]1C[C@H](Cc2ccc(F)c(Cl)c2)CN1)C(=O)NCc1cnc2c(c1)c(Cl)cn2C [compound 1474, (2R,4S)—N—((S)-1-(((3-Chloro-1-methyl-1H-pyrrolo[2,3-b]pyridin-5-yl)methyl)amino)-1-oxopropan-2-yl)-4-(3-chloro-4-fluorobenzyl)pyrrolidine-2-carboxamide Trifluoroacetate salt] | < 500 | **** (≥100-fold) | < 500 | > 25 |  |  |
| COc1ccc(C[C@@H]2CN[C@@H](C(=O)N[C@@H](C)C(=O)NCc3ccc(N)nc3C)C2)cc1Cl [compound 1475, (2R,4S)—N—((S)-1-(((6-Amino-2-methylpyridin-3-yl)methyl)amino)-1-oxopropan-2-yl)-4-(3-chloro-4-methoxybenzyl)pyrrolidine-2-carboxamide Di-trifluoroacetate salt] | < 500 | **** (≥100-fold) | < 500 |  | 10 to 25 |  |
| COc1cc2ccccc2cc1C[C@@H]1CN[C@@H](C(=O)N[C@@H](C)C(=O)NCc2ccc(N)nc2C)C1 [compound 1478, (2R,4S)—N—((S)-1-(((6-Amino-2-methylpyridin-3-yl)methyl)amino)-1-oxopropan-2-yl)-4-((3-methoxynaphthalen-2-yl)methyl)pyrrolidine-2-carboxamide Dihydrochloride] | < 500 | **** (≥100-fold) | < 500 |  | 10 to 25 |  |
| Cc1nc(N)ccc1CNC(=O)[C@H](C)NC(=O)[C@H]1C[C@H](Cc2ccc(C)c3ccccc23)CN1 [compound 1479, (2R,4S)—N—((S)-1-(((6-Amino-2-methylpyridin-3-yl)methyl)amino)-1-oxopropan-2-yl)-4-((4-methylnaphthalen-1-yl)methyl)pyrrolidine-2-carboxamide Dihydrochloride] | < 500 | **** (≥100-fold) | < 500 |  | 10 to 25 |  |
| Cc1nc(N)ccc1CNC(=O)[C@H](C)NC(=O)[C@H]1CC(Cc2ccc(F)cc2)(Cc2ccc(F)cc2)CN1 [compound 1480, (R)—N—((S)-1-(((6-Amino-2-methylpyridin-3-yl)methyl)amino)-1-oxopropan-2-yl)-4,4-bis(4-fluorobenzyl)pyrrolidine-2-carboxamide Di-trifluoroacetate salt] | < 500 | **** (≥100-fold) | 500 to 2500 | > 25 |  |  |
| Cc1nc(N)ccc1CNC(=O)[C@H](C)NC(=O)[C@H]1C[C@H](C2(c3ccccc3)CC2)CN1 [compound 1481, (2R,4R)—N—((S)-1-(((6-Amino-2-methylpyridin-3-yl)methyl)amino)-1-oxopropan-2-yl)-4-(1-phenylcyclopropyl)pyrrolidine-2-carboxamide Di-trifluoroacetate salt] | < 500 | **** (≥100-fold) | < 500 |  | 2.5 to 10 |  |
| C[C@H](NC(=O)[C@H]1C[C@H](Cc2ccccc2Br)CN1)C(=O)NCc1cnc2c(c1)c(Cl)cn2C [compound 1482, (2R,4S)-4-(2-bromobenzyl)-N-((S)-1-(((3-chloro-1-methyl-1H-pyrrolo[2,3-b]pyridin-5-yl)methyl)amino)-1-oxopropan-2-yl)pyrrolidine-2-carboxamide Hydrochloride] | < 500 | *** (≥25 to <100-fold) | < 500 |  | 0.5 to 2.5 |  |
| Cc1nc(N)ccc1CNC(=O)[C@H](C)NC(=O)[C@H]1C[C@H](Cc2cc(Br)c(Cl)s2)CN1 [compound 1483, (2R,4R)—N—((S)-1-(((6-Amino-2-methylpyridin-3-yl)methyl)amino)-1-oxopropan-2-yl)-4-((4-bromo-5-chlorothiophen-2-yl)methyl)pyrrolidine-2-carboxamide Di-trifluoroacetate salt] | < 500 | **** (≥100-fold) | < 500 |  | 10 to 25 |  |
| C[C@H](NC(=O)[C@H]1C[C@H](Cc2ccc(F)c(Cl)c2)CN1CC(=O)O)C(=O)NCc1cnc2c(c1)c(Cl)cn2C [compound 1484, 2-((2R,4S)-2-(((S)-1-(((3-Chloro-1-methyl-1H-pyrrolo[2,3-b]pyridin-5-yl)methyl)amino)-1-oxopropan-2-yl)carbamoyl)-4-(3-chloro-4-fluorobenzyl)pyrrolidin-1-yl)acetic acid Trifluoroacetate salt] |  |  | 500 to 2500 | > 25 |  | 500 to 2500 |
